Where two headings read alike, the source gives them in different places. Each block holds one compound with its values, some of them ahead of it.
Experiments:
[1] = system: MKN45 gastric cancer cell line; experiment: Assay of inhibitory effect on cell proliferation (CellTiter-Glo); assay type: cell-based; conditions: Homo sapiens, MKN-45, 72 h, read-out: MKN45 cell IC50
Text: Assay Example 2: Assay of Inhibitory Effect on Cell Proliferation
1. cell culture: DMEM medium, fetal bovine serum, DPBS
2. cell line: MKN45 gastric cancer cell line
3. detection reagent: live cell detection kit CellTiter-Glo
4. other main materials and reagents: compound dilution plate, middle plate, detection plate, DMSO
The content of ATP directly reflects the number and state of cells. By quantitation of ATP, the number of living cells can be detected. The living cell detection kit contains luciferase and its substrate. Through the participation of ATP, the luciferase can catalyze the substrate to emit a stable light signal. The number of ATP in the cells was determined by detecting the intensity of the signal. The light signal was directly proportional to the number of ATP in the cells, while ATP was positively correlated with the number of living cells, so that the proliferation of cells can be detected. The test plate was analyzed using Envision from PE Inc.
1. Preparation of the Cell Plate
The MKN45 cells were seeded into a 384-well plate with 200 cells per well. The cell plate was placed in a carbon dioxide incubator and incubated overnight.
2. Preparation of Compounds
Compounds were subject to a 5-fold serial dilution with Echo to obtain nine concentrations, in duplicate.
3. Treatment of Cells with Compounds
The compounds were transferred to the cell plate at an initial concentration of […]. The cell plate was placed in a carbon dioxide incubator and incubated for three days.
A Promega CellTiter-Glo reagent was added to the cell plate and incubated at room temperature for 10 minutes to stabilize the luminescence signal. A PerkinElmer Envision multi-label analyzer was used for reading.

[2] = system: MKN45 gastric cancer cells; experiment: Drug efficacy in a model with subcutaneous xenograft tumor of MKN45 gastric cancer cells; assay type: in vivo, BALB/c nude mice; conditions: day 14 after administration; for Tumor volume (Day 14): Mean ± SEM
Description: Assay Example 3: Assay of Drug Efficacy in a Model with Subcutaneous Xenograft Tumor of MKN45 Gastric Cancer Cells
MKN45 cells were cultured in vitro in monolayer. The culture conditions were RPMI1640 medium plus 10% heat-inactivated fetal bovine serum, 1% penicillin-streptomycin, 37° C., and 5% CO2. The passaging was carried out by conventional digestion with trypsin-EDTA twice a week. When the cells were in the exponential growth phase, the cells were collected, counted, and inoculated.
(§1) BALB/c nude mice, male, 6-8 weeks old, weighted 18-22 grams.
0.2 ml of a suspension containing 5×10^6 MKN45 cells was inoculated subcutaneously on the right back of each mouse. When the average volume of the tumor reached about 160 mm^3, administration to each group was started.
(§2) Assay index: the assay index is to investigate whether the tumor growth is inhibited, delayed or cured. Tumor diameter was measured twice a week with a vernier caliper. The calculation formula of tumor volume is: V=0.5a×b^2, wherein a and b represent the long and short diameters of the tumor, respectively. The anti-tumor efficacy (TGI) of the compound was evaluated by T-C (day) and T/C (%).
Assay results: See Table 3.

[3] = system: Hs746t gastric cancer cells; experiment: Drug efficacy in a model with subcutaneous xenograft tumor of Hs746t gastric cancer cells; assay type: in vivo, BALB/c nude mice; conditions: for Tumor volume (Day 0): Day 0, Mean ± SEM; for Tumor volume (Day 20): Day 20, Mean ± SEM
Description: Assay Example 4: Assay of Drug Efficacy in a Model with Subcutaneous Xenograft Tumor of Hs746t Gastric Cancer Cells
Human gastric cancer Hs746t cells were cultured in vitro in monolayer. The culture conditions were DMEM medium plus 10% fetal bovine serum, 100 U/mL penicillin and 100 U/mL streptomycin, 37° C., 5% CO2 incubator. The passaging was carried out by conventional digestion with trypsin-EDTA twice a week. When the cell saturation was 80%-90%, and the number met the requirements, the cells were collected, counted, and inoculated.
as §1
0.2 mL (2×10^6, cells:Matrigel=1:1) of HS 746T cells were subcutaneously inoculated on the right back of each mouse. When the average tumor volume reached about 100-150 mm^3, administration to each group was started.
as §2, with “index: The” for “index: the”, “whether” for “whether the”
Assay results: See Table 4.

MHCC97H cell = conditions: read-out: MHCC97H cell IC50; cited from earlier work
[4] = three days incubation, CellTiter-Glo

Structure (SMILES): NC(=O)Nc1cc(Oc2ccc(NC(=O)c3cn(CC4CC4)c(=O)n(-c4ccc(F)cc4)c3=O)cc2F)ccn1 [Example 16]
IC50 [1]: 50.7 nM

Structure (SMILES): CC(C)n1cc(C(=O)Nc2ccc(Oc3ccnc(N)c3Cl)c(F)c2)c(=O)n(-c2ccc(F)cc2)c1=O [Example 1]
IC50 [1]: 54 nM
T/C [2]: 16.5%
TGI [2]: 95.1%
Tumor volume (Day 14) [2]: 218 ± 31 mm^3

IC50 [1, 4]: 436 nM
Structure (SMILES): CCOc1ccn(-c2ccc(F)cc2)c(=O)c1C(=O)Nc1ccc(Oc2ccnc(N)c2Cl)c(F)c1 [BMS777607, reference compound]
TGI ([3]; 4.5 mpk): 27.61%
Tumor volume (Day 0) ([3]; 4.5 mpk): 127 ± 11 mm^3
T/C (Day 20) ([3]; 4.5 mpk): 73.58%
Tumor volume (Day 20) ([3]; 4.5 mpk): 1872 ± 355 mm^3

Structure (SMILES): Nc1nccc(Oc2ccc(NC(=O)c3cn(CC4CC4)c(=O)n(-c4ccc(F)cc4)c3=O)cc2F)c1Cl [Example 5]
IC50 [1]: 11 nM
T/C [2]: 15.3%
TGI [2]: 96.9%
Tumor volume (Day 14) [2]: 196 ± 17 mm^3
TGI ([3]; 4.5 mpk): 104.43%
Tumor volume (Day 0) ([3]; 4.5 mpk): 126 ± 10 mm^3
T/C (Day 20) ([3]; 4.5 mpk): 0.78%
Tumor volume (Day 20) ([3]; 4.5 mpk): 20 ± 8 mm^3
TGI ([3]; 9 mpk): 105.01%
Tumor volume (Day 0) ([3]; 9 mpk): 127 ± 10 mm^3
T/C (Day 20) ([3]; 9 mpk): 0.00%
Tumor volume (Day 20) ([3]; 9 mpk): 0 ± 0 mm^3

Structure (SMILES): CN(C)C(=O)Nc1cc(Oc2ccc(NC(=O)c3cn(CC4CC4)c(=O)n(-c4ccc(F)cc4)c3=O)cc2F)ccn1 [Example 17]
TGI ([3]; 1.5 mpk): 74.16%
Tumor volume (Day 0) ([3]; 1.5 mpk): 127 ± 12 mm^3
T/C (Day 20) ([3]; 1.5 mpk): 30.68%
Tumor volume (Day 20) ([3]; 1.5 mpk): 780 ± 195 mm^3
TGI ([3]; 4.5 mpk): 104.82%
Tumor volume (Day 0) ([3]; 4.5 mpk): 127 ± 13 mm^3
T/C (Day 20) ([3]; 4.5 mpk): 0.15%
Tumor volume (Day 20) ([3]; 4.5 mpk): 4 ± 2 mm^3
TGI ([3]; 9 mpk): 105.02%
Tumor volume (Day 0) ([3]; 9 mpk): 127 ± 9 mm^3
T/C (Day 20) ([3]; 9 mpk): 0.00%
Tumor volume (Day 20) ([3]; 9 mpk): 0 ± 0 mm^3

IC50 [1, 4]: 374 nM
Structure (SMILES): CC(C)Cn1cc(C(=O)Nc2ccc(Oc3ccnc(N)c3Cl)c(F)c2)c(=O)n(-c2ccc(F)cc2)c1=O [Example 8]

Structure (SMILES): CN1CCC(COc2cnc(-c3cccc(Cn4nc(-c5cccc(C#N)c5)ccc4=O)c3)nc2)CC1 [Tepotinib]
IC50 (MHCC97H cell): 6.2 nM

Structure (SMILES): O=C(Nc1ccc(Oc2ccnc(NC(=O)N3CCC3)c2)c(F)c1)c1cn(CC2CC2)c(=O)n(-c2ccc(F)cc2)c1=O [Example 18]
IC50 [1]: 12.1 nM

Structure (SMILES): O=C(Nc1ccc(Oc2ccnc(NC(=O)N3CCCC3)c2)c(F)c1)c1cn(CC2CC2)c(=O)n(-c2ccc(F)cc2)c1=O [Example 20]
IC50 [1]: 29.1 nM

Structure (SMILES): C=CCn1cc(C(=O)Nc2ccc(Oc3ccnc(N)c3Cl)c(F)c2)c(=O)n(-c2ccc(F)cc2)c1=O [Example 2]
IC50 [1]: 78 nM

IC50 [1, 4]: 315 nM
Structure (SMILES): Nc1nccc(Oc2ccc(NC(=O)c3c4n(c(=O)n(-c5ccc(F)cc5)c3=O)CCC4)cc2F)c1Cl [Example 12]

IC50 [1, 4]: 27 nM
Structure (SMILES): Nc1nccc(Oc2ccc(NC(=O)c3cn(CC4CC4(F)F)c(=O)n(-c4ccc(F)cc4)c3=O)cc2F)c1Cl (stereo not shown) [Example 3]

Structure (SMILES): Nc1nccc(Oc2ccc(NC(=O)c3cn(CC(F)F)c(=O)n(-c4ccc(F)cc4)c3=O)cc2F)c1Cl [Example 9]
IC50 [1]: 365 nM

Structure (SMILES): Cc1ccc(C(=O)Nc2ccc(Oc3cc4cnn(C)c4cc3-c3cn[nH]c3)c(F)c2)c(=O)n1-c1ccc(F)cc1 [LY2801653, reference compound]
TGI ([3]; 4.5 mpk): 101.62%
Tumor volume (Day 0) ([3]; 4.5 mpk): 127 ± 12 mm^3
T/C (Day 20) ([3]; 4.5 mpk): 3.45%
Tumor volume (Day 20) ([3]; 4.5 mpk): 88 ± 13 mm^3

Structure (SMILES): N#Cc1c(Oc2ccc(NC(=O)c3cn(CC4CC4)c(=O)n(-c4ccc(F)cc4)c3=O)cc2F)ccnc1N [Example 14]
IC50 [1]: 30 nM

Structure (SMILES): Cc1[nH]c(=O)n(-c2ccc(F)cc2)c(=O)c1C(=O)Nc1ccc(Oc2ccnc(N)c2Cl)c(F)c1 [Example 11]
IC50 [1]: 240 nM

Structure (SMILES): O=C(Nc1ccc(Oc2ccnc(NC(=O)N3CCOCC3)c2)c(F)c1)c1cn(CC2CC2)c(=O)n(-c2ccc(F)cc2)c1=O [Example 13]
IC50 [1]: 38 nM
